According to paper PMC9926489, “Chemical Optimization of Selective Pseudomonas aeruginosa LasB Elastase Inhibitors and Their Impact on LasB-Mediated Activation of IL-1β in Cellular and Animal Infection Models” (ACS Infectious Diseases, 2023):

What was measured:
LasB S460T = biological target: T1, LasB S460T (Pseudomonas aeruginosa, UniProt P14756, S460T); experiment: LasB variant inhibition, culture supernatant: S460T; format: biochemical, P. aeruginosa
T1 construct: Most changes were identified in the mature peptide, however some occurred in the propeptide domain; endogenous in cells; host or cells: P. aeruginosa clinical CF isolate, culture supernatant
Source text: Compounds 12 and 16 were discovered as a result of optimizing potency against the LasB protein expressed from the wild-type (WT) reference strain P. aeruginosa PAO1. To understand the relative prevalence of the WT LasB protein versus other variants in clinical respiratory P. aeruginosa strains, the full-length lasB gene was amplified by PCR from 255 clinical isolates (obtained from CF sputum samples). […] Most changes were identified in the mature peptide, however some occurred in the propeptide domain, which could affect LasB processing (marked in italics in Table 4).
LasB inhibition assays were performed using purified LasB enzyme (1 ng/well) for compound screening or using culture supernatants (prepared as described in the ECR assay) for testing LasB variants. Hydrolysis of the fluorogenic peptide substrate 2-aminobenzoyl-Ala-Gly-Leu-Ala-4-nitrobenzylamide (Abz-AGLA-Nba; Peptide International) in 50 mM Tris-HCl (pH 7.4), supplemented with 2.5 mM CaCl2 was followed using an Envision microplate reader (PerkinElmer) at 315 nm excitation and 430 nm emission. […] IC50 values were determined from Hill plots using Dotmatics Studies ELN software. For the mechanism of inhibition studies, hydrolysis rates were measured in the presence of variable concentrations of substrate and inhibitor, and the inhibition constant (Ki) was determined using Dixon plot analysis.[31]

MMP-2 = biological target: T2, MMP-2 (Homo sapiens, UniProt P08253); experiment: MMP-2 selectivity assay; format: biochemical; conditions: human MMP-2
T2 sequence (P08253 110-660): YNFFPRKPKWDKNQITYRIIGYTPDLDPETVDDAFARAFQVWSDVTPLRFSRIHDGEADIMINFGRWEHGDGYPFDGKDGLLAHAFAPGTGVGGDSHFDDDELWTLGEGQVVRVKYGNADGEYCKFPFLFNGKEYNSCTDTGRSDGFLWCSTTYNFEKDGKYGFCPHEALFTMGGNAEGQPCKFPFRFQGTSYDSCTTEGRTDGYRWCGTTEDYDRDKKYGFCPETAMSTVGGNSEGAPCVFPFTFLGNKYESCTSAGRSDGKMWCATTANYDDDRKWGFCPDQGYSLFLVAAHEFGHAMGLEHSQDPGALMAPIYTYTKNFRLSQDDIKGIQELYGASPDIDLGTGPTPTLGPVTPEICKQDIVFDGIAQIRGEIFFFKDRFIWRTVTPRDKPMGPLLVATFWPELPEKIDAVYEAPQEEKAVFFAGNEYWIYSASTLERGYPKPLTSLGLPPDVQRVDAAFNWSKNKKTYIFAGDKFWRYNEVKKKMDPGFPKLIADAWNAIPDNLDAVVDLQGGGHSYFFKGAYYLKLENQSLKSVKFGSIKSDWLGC
Description: Selectivity of compound inhibition was evaluated against other proteases at concentrations between 0.4 and 200 μM. Activity against rabbit angiotensin-converting enzyme (ACE, Sigma) was assessed using 10 μM fluorogenic substrate Abz-Phe-Arg-Lys(Dnp)-P (Enzo Life Sciences) in 100 mM Tris-HCl pH 7, 50 mM NaCl, 10 μM Zn SO4. Activity against human matrix metalloproteases (MMP)-2 and MMP-9 was assessed in 50 mM HEPES pH 7.5, 10 mM CaCl2, 0.01% Triton X-100 using 4 μM fluorogenic substrate Mca-Pro-Leu-Gly-Leu-Dpa-Ala-Arg-NH2 (Enzo Life Sciences). Activity against MMP-1 and MMP-13 was assessed in 25 mM HEPES pH 7.5, 100 mM NaCl, 100 mM CaCl2, 0.0005% Brij using 7.5 μM fluorogenic substrate Mca-Lys-Pro-Leu-Gly-Leu-Dpa-Ala-Arg-NH2 (Sigma) for MMP-1 and 1.25 μM fluorogenic substrate Mca-Pro-Cha-Gly-Nva-His-Ala-Dpa-NH2 (Millipore) for MMP-13. Activity against human neutrophil elastase (HNE, Enzo Life Sciences) was assessed in 100 mM HEPES pH 7.5, 500 mM NaCl, 0.01% of Triton X-100 using 100 μM fluorogenic substrate MeOSuc-AAPV-AMC (Enzo Life Sciences).

[1] = Mouse pharmacokinetics, plasma; format: in vivo; conditions: single 10 mg/kg IV dose; for half-life / C0 / AUC(0-t) / clearance: female, ICR (CD-1), plasma; for half-life: iv, read-out: plasma t1/2 (converted); for half-life / plasma t1/2: 10 mg/kg; for AUC(0-t): read-out: plasma AUClast; for clearance: read-out: plasma CL
Description: The PK parameters of compounds 12 and 16 were investigated in both plasma and lung epithelial lining fluid (ELF) after intravenous (IV) administration of compounds at 10 mg/kg in mice (Figure 4 and Table 5). […] Accordingly, these levels of lung penetration (9.5 and 5.2%, respectively) warranted the evaluation of the compounds in an animal model of lung infection using IV dosing.
Unrestrained, nonanesthetized mice (Female ICR (CD-1); Age 5–6 weeks; Size 22 ± 2 g; specific pathogen-free (SPF)) were injected IV with test article formulations via the tail vein. Animals were sacrificed by cardiac puncture under CO2 euthanasia at 0.08, 0.25, 1, 2, 4, 8, and 24 h post dosing. Blood was drawn into tubes coated with EDTA-K3, mixed gently and plasma was then harvested and kept frozen at −70 °C until further processing. To collect […] (BALF), 0.5 mL of PBS was administered once through a tracheal cannula after which about 0.2 to 0.3 mL of BALF was obtained. The BALF was kept on ice and centrifuged within 1 h of collection and the supernatant was harvested and kept frozen at −70 °C. Plasma and BALF samples were analyzed by LC-MS/MS (AB SCIEX API 3000 mass spectrometer). The apparent ELF volume of each BALF sample was estimated using urea as an endogenous marker of the ELF dilution. The urea concentrations in BALF and plasma samples were determined with the QuantiChrom Urea Assay Kit (DIUR-100) (BioAssay Systems) following the manufacturer’s protocol. For each BALF sample, the drug concentration in ELF was calculated as follows: drug concentrationELF = drug concentrationBALF × (urea concentrationplasma/urea concentrationBALF). The PK parameters of each compound after IV dosing (t1/2, C0, AUClast, and CL) were obtained from the noncompartmental analysis (NCA) of the plasma data using WinNonlin.

T1 sequence (P14756 198-498 S460T): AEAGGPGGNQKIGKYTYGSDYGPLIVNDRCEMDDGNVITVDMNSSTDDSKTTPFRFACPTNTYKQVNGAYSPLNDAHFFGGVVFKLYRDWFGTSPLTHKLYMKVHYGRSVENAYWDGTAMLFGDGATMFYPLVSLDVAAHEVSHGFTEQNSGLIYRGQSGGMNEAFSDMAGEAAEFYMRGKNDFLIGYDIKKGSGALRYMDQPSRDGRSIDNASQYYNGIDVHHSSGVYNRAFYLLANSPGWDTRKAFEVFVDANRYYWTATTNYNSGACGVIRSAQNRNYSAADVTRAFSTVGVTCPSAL

| Structure (SMILES) | IC50 (LasB S460T) [nM] | IC50 (MMP-2) [nM] | half-life [1] [h] | C0 [1] [µg/mL] | AUC(0-t) [1] [µg·h/mL] | clearance [1] [mL/min/kg] | plasma t1/2 [1] [h] |
| --- | --- | --- | --- | --- | --- | --- | --- |
| COc1cc2sc(CNC(=O)C3(CC(=O)O)Cc4cc(F)c(F)cc4C3)nc2cc1OCCC[N+](C)(CCO)CCO [Compound 16] | 201 | > 200000 | ~6 | 176 | 517 | 0.3 | 6.5 |
| COc1cc2sc(CNC(=O)C3(CC(=O)O)Cc4ccccc4C3)nc2cc1OCCC[N+](C)(C)C [Compound 12] | 211 | > 200000 | ~6 | 92.2 | 610 | 0.3 | 6.2 |
